Data from ChEMBL document CHEMBL5724696, “Autophagy assay results for EUbOPEN Chemogenomics Library” (2024).

Key:
[1] = system: U2OS; assay: (§1) Here: values are normalized to the negative (DMSO; defined as 0% autophagy induction) and positive (250nM Torin1; mTOR inhibitor; defined as maximal inducer of autophagy = 100%) control compounds and represented as % of autophagy induction. […] The impact of autophagy induction on cells is complex and depends on the affected target. As such, the magnitude of a phenotype may not be equally mirrored in the %-value of autophagy induction and vice versa. The dynamics of the induction may indicate the mode of activation: e.g. activation via phosphorylation or a signaling cascade may occur fast, while activation via transcription factors may take considerably longer. […] Of note, treatment concentrations may be sub-optimal for specific compounds, leading to false negative annotations.; type: functional, Homo sapiens; details: Culturing Media DMEM, 1 % Penicillin/Streptomycin, 10% Fetal bovin serum Add-On: No, Screening Media Control DMEM, Screening Media Samples DMEM
[2] = system: U2OS; assay: as §1; type: functional, Homo sapiens; details: Culturing Media DMEM, 1 % Penicillin/Streptomycin, 10% Fetal bovin serum Add-On: No, Screening Media Control DMEM, Screening Media Samples DMEM; remark: listed apart in the source
[3] = Compound Concentration 0.5 uM, Timepoint 12 hours
[4] = Compound Concentration 0.5 uM, Timepoint 24 hours
[5] = Compound Concentration 0.5 uM, Timepoint 36 hours
[6] = Compound Concentration 0.5 uM, Timepoint 60 hours
[7] = Compound Concentration 2 uM, Timepoint 12 hours
[8] = Compound Concentration 2 uM, Timepoint 24 hours
[9] = Compound Concentration 2 uM, Timepoint 36 hours
[10] = Compound Concentration 2 uM, Timepoint 60 hours
[11] = Compound Concentration 10 uM, Timepoint 12 hours
[12] = Compound Concentration 10 uM, Timepoint 24 hours
[13] = Compound Concentration 10 uM, Timepoint 36 hours
[14] = Compound Concentration 10 uM, Timepoint 60 hours

| Structure (SMILES) | autophagy induction [1, 3] [%] | autophagy induction [1, 4] [%] | autophagy induction [1, 5] [%] | autophagy induction [1, 6] [%] | autophagy induction [1, 7] [%] | autophagy induction [1, 8] [%] | autophagy induction [1, 9] [%] | autophagy induction [1, 10] [%] | autophagy induction [1, 11] [%] | autophagy induction [1, 12] [%] | autophagy induction [1, 13] [%] | autophagy induction [1, 14] [%] | autophagy induction [2, 3] [%] | autophagy induction [2, 4] [%] | autophagy induction [2, 5] [%] | autophagy induction [2, 6] [%] | autophagy induction [2, 7] [%] | autophagy induction [2, 8] [%] | autophagy induction [2, 9] [%] | autophagy induction [2, 10] [%] | other results |
| --- | --- | --- | --- | --- | --- | --- | --- | --- | --- | --- | --- | --- | --- | --- | --- | --- | --- | --- | --- | --- | --- |
| CCCCN(CC)c1nc(C)nc2c1c(C)cn2-c1c(C)cc(C)cc1C.Cl | 2.677 | -1.508 | -1.584 | 114.355 | 3.96 | -1.673 | -1.59 | 114.358 | -1.788 | -2.669 | -2.565 | 114.561 | 18.6925 | 15.758 | 10.5217 | 0.4484 | 10.9121 | 4.341 | 5.091 | -0.08598 | autophagy induction [2, 11]: 2.112%; autophagy induction [2, 12]: -2.1052%; autophagy induction [2, 13]: 3.327%; autophagy induction [2, 14]: 1.7732% |
| Cc1nc(C#Cc2ccnc(Cl)c2)c(C)n1-c1ccc(OC(F)(F)F)cc1 | 6.745 | 0.06808 | -1.509 | 114.498 | 7.139 | -0.173 | -1.142 | 114.204 | 1.1344 | 2.694 | 0.08816 | 114.429 | 6.456 | 5.383 | 5.336 | 1.571 | -2.91 | 2.407 | -0.6644 | -12.3758 | autophagy induction [2, 11]: 2.059%; autophagy induction [2, 12]: 11.3882%; autophagy induction [2, 13]: 11.4393%; autophagy induction [2, 14]: 13.7118% |
| N#Cc1ccc(NC(=O)Nc2ccccc2Br)c2nn[nH]c12 | -0.5776 | -3.216 | -2.984 | 114.391 | 0.1454 | -3.5634 | -1.494 | 114.288 | -0.261 | -3.379 | -2.529 | 114.424 | 5.86 | 3.694 | 2.244 | 1.525 | -10.6319 | -11.2857 | -14.4856 | -10.0033 | autophagy induction [2, 11]: -0.1618%; autophagy induction [2, 12]: -2.733%; autophagy induction [2, 13]: -3.711%; autophagy induction [2, 14]: -9.797% |
| O=C(O)CC/C=C\C[C@@H]1CO[C@H](c2ccccc2Cl)O[C@@H]1c1ccccc1O | -2.932 | -1.885 | -1.616 | 114.317 | -0.3574 | -1.612 | -1.86 | 114.217 | -0.147 | -2.085 | -2.519 | 114.255 | -1.049 | 2.549 | 1.3825 | -3.206 | -3.826 | -5.258 | 1.68 | -8.886 | autophagy induction [2, 11]: 0.2701%; autophagy induction [2, 12]: -2.3073%; autophagy induction [2, 13]: -0.4123%; autophagy induction [2, 14]: -4.081% |
| N[C@H](C(=O)O)c1ccc(C(=O)O)c(C(=O)O)c1 | -6.378 | -5.676 | -3.938 | 114.48 | 4.454 | -1.856 | -1.714 | 114.31 | 50.3971 | 15.7905 | 7.703 | 113.866 | -5.827 | -6.791 | -11.2953 | -15.497 | 2.006 | -3.7569 | 0.8793 | 2.43 | autophagy induction [2, 11]: -6.462%; autophagy induction [2, 12]: -8.325%; autophagy induction [2, 13]: -2.853%; autophagy induction [2, 14]: -1.815% |
| Cc1cc([C@@H](C)Nc2cccc(-c3cc(C)c(C(=O)N[C@@H](C)C(=O)O)c(C)c3)c2)ccc1Cl | -1.358 | -0.4353 | -1.357 | 114.287 | 0.7384 | 3.004 | -0.1787 | 114.309 | 25.7636 | 8.275 | 1.804 | 114.446 | -5.116 | -3.567 | -5.902 | -1.838 | -9.884 | -6.925 | -1.645 | 5.389 | autophagy induction [2, 11]: 8.557%; autophagy induction [2, 12]: 0.1878%; autophagy induction [2, 13]: -1.416%; autophagy induction [2, 14]: -9.482% |
| Cc1cc(NC(=O)Nc2ccc(N(C)C)cc2)c2cc(F)cc(F)c2n1 | -2.687 | -3.664 | -3.669 | 114.219 | -0.9187 | -2.555 | -1.904 | 114.2 | 1.036 | -2.2709 | 0.4658 | 113.441 | -3.035 | -2.6114 | -4.581 | -2.138 | -10.8002 | -10.6502 | -6.099 | -2.686 | autophagy induction [2, 11]: 2.643%; autophagy induction [2, 12]: 9.654%; autophagy induction [2, 13]: 13.8869%; autophagy induction [2, 14]: 31.5866% |
